# Counter-ions that a name gives are not always drawn.
row,SMILES,melting point [°C]
1,"COc1cccc(NC(=O)CNC2CCN(Cc3ccc(Cl)c(Cl)c3)CC2)c1 (as salt: hydrochloride) [Example 104, 2-{[1-(3,4-Dichlorobenzyl)-4-piperidinyl]amino}-N-(3-methoxyphenyl)acetamide, dihydrochloride Salt]",274 to 276
2,"COc1ccc(CNC2CCN(Cc3ccc(Cl)c(Cl)c3)CC2)cc1 (as salt: hydrochloride) [Example 107, N-[1-(3,4-Dichlorobenzyl)-4-piperidinyl]-N-(4-methoxybenzyl)amine, dihydrochloride Salt]",> 250
3,"O=C(CSc1ccc(C(F)(F)F)cn1)NC1CCN(Cc2ccc(Cl)c(Cl)c2)CC1 [Example 94, N-[1-(3,4-Dichlorobenzyl)-4-piperidinyl]-2-{[5-(trifluoromethyl)-2-pyridinyl]sulfanyl}acetamide]",98
4,"Cc1c(CC(=O)NC2CCN(Cc3ccc(Cl)c(Cl)c3)CC2)cnn1-c1ccccc1 [Example 95, N-[1-(3,4-Dichlorobenzyl)-4-piperidinyl]-2-(5-methyl-1-phenyl-1H-pyrazol-4-yl)acetamide]",165
5,"O=C(CCCC(=O)c1ccccc1)NC1CCN(Cc2ccc(Cl)c(Cl)c2)CC1 [Example 96, N-[1-(3,4-Dichlorobenzyl)-4-piperidinyl]-5-oxo-5-phenylpentanamide]",130
6,"Cc1sc(-c2ccc(Cl)cc2)nc1CC(=O)NC1CCN(Cc2ccc(Cl)c(Cl)c2)CC1 [Example 97, 2-[2-(4-Chlorophenyl)-5-methyl-1,3-thiazol-4-yl]-N-[1-(3,4-dichlorobenzyl)-4-piperidinyl]acetamide]",170
7,O=C(CSc1ccccc1)NC1CCN(Cc2ccc(Cl)c(Cl)c2)CC1 [Example 98],97 to 99
8,"O=C(Cc1ccc(F)cc1)NC1CCN(Cc2ccc(Cl)c(Cl)c2)CC1 [Example 99, N-[1-(3,4-Dichlorobenzyl)-4-piperidinyl]-2-(4-fluorophenyl)acetamide]",144 to 147
9,"O=C(Cc1csc(-c2cnccn2)n1)NC1CCN(Cc2ccc(Cl)c(Cl)c2)CC1 [Example 100, N-[1-(3,4-Dichlorobenzyl)-4-piperidinyl]-2-[2-(2-pyrazinyl)-1,3-thiazol-4-yl]acetamide]",186 to 189
10,"O=C(CSc1ncc(-c2ccccc2)cn1)NC1CCN(Cc2ccc(Cl)c(Cl)c2)CC1 [Example 101, N-[1-(3,4-Dichlorobenzyl)-4-piperidinyl]-2-[(5-phenyl-2-pyrimidinyl)sulfanyl]acetamide]",157
11,"O=C(CCc1nc(-c2ccccn2)no1)NC1CCN(Cc2ccc(Cl)c(Cl)c2)CC1 [Example 102, N-[1-(3,4-Dichlorobenzyl)-4-piperidinyl]-3-[3-(2-pyridinyl)-1,2,4-oxadiazol-5-yl]propanamide]",155
12,"Clc1ccc(CN2CCC(Nc3nc4ccccc4[nH]3)CC2)cc1Cl [Example 103, N-[1-(3,4-Dichlorobenzyl)-4-piperidinyl]-1H-benzimidazol-2-amine]",125
13,"O=C(Nc1ccc(Cl)c(Cl)c1)NC1CCN(Cc2ccc(Cl)c(Cl)c2)CC1 [Example 105, N-[1-(3,4-Dichlorobenzyl)-4-piperidinyl]-N′-(3,4-dichlorophenyl)urea]",189 to 190
14,"COc1cccc(NC(=O)NC2CCN(Cc3ccc(Cl)c(Cl)c3)CC2)c1 [Example 106, N-[1-(3,4-Dichlorobenzyyl)-4-piperidinyl]-N′-(3-methoxyphenyl)urea]",178 to 179
15,"O=C(Cc1nc(-c2ccccn2)no1)NC1CCN(Cc2ccc(Cl)c(Cl)c2)CC1 [Example 359, N-[1-(3,4-Dichlorobenzyl)-4-piperidinyl]-2-[3-(2-pyridinyl)-1,2,4-oxadiazol-5-yl]acetamide]",145
16,"O=C(CCc1nc(-c2ccccn2)no1)NC1CCN(Cc2ccc(F)c(Cl)c2)CC1 [Example 362, N-[1-(3-Chloro-4-fluorobenzyl)-4-piperidinyl]-3-[3-(2-pyridinyl)-1,2,4-oxadiazol-5-yl]propanamide]",150
17,"O=C(CCc1nc(-c2ccccn2)no1)NC1CCN(Cc2ccc(Cl)c(F)c2)CC1 [Example 363, N-[1-(4-Chloro-3-fluorobenzyl)-4-piperidinyl]-3-[3-(2-pyridinyl)-1,2,4-oxadiazol-5-yl]propanamide]",132
